Experimental data: US6040149A, “Assay for identifying agents which act on the ceramide-activated protein kinase, kinase suppressor of ras, and methods of using said agents” (priority 1997, dated 2000)

Experiments:
protein kinase C = test: Protein kinase C activity in EL-4 cells (lysine-rich histone phosphorylation); assay type: cell-based, murine (EL-4 cells); details: membrane or cytosolic fractions
sphingomyelin pathway = test: Sphingomyelin, ceramide and CAP kinase activity in EL-4 cell-free system; assay type: biochemical, murine (EL-4 cells); details: IL-1β 10 ng ml^-1
Experimental: IL-1β effects on sphingomyelin and ceramide levels (A) and ceramide-activated protein kinase activity (B) in a cell-free system. […] Thereafter, supernates (300 μg incubation^-1 in 25 μl) were added to a reaction mixture (total volume 250 μl) as described in FIG. 14. For studies measuring lipid levels, incubations were stopped by extraction of lipids into an organic phase and resolved as described in FIGS. 12 and 13. For studies measuring kinase activity, incubations contained EGFR peptide and [^32 P]ATP, and phosphorylated peptide was quantified as described in FIG. 14. Background activity was subtracted from each point. Values (mean) represent data from two experiments for sphingomyelin performed in triplicate, three experiments for ceramide performed in triplicate, and five experiments for ceramide-activated protein kinase activity performed in duplicate.
Early kinetics of activation of a potential signaling system provide some support that the pathway might be involved in the signaling process. However, signal transduction pathways are highly regulated and often interrelated. […] To provide additional support for tight coupling of the sphingomyelin pathway to activation of the IL-1β receptor, studies were performed with subcellular fractions derived from EL-4 cells. For these studies, supernates, collected after a low-speed centrifugation to remove nuclei, were first incubated with IL-1β for 10 minutes at 4° C. to permit formation of IL-1 receptor complexes. Thereafter, reactions were initiated by warming supernates to 22° C. in a reaction mixture containing Mg^2+ at pH 7.4. These conditions were adopted to allow for activation of endogenous neutral sphingomyelinase. For studies measuring kinase activity, reaction mixtures also contained [^32 P] ATP and EGFR peptide. […] In separate studies, a statistically significant reduction in sphingomyelin content (n=10) and elevation in ceramide content (n=6) were detected at 1 minute of stimulation (p<0.005 vs. control). […] These effects were quantitatively similar to those determined in the intact cells.

[1] = system: ceramide-activated protein kinase; test: Ceramide-activated protein kinase activity (EGFR peptide) in EL-4 cell fractions
Experimental: Effect of IL-1β on ceramide-activated protein kinase activity. […] Homogenates were centrifuged at 500×g for 5 minutes to remove nuclei and at 200,000×g for 30 minutes to prepare microsomal membranes. Membranes were resuspended into homogenizing buffer (2.2 μg membrane protein μl^-1). For assay of kinase activity, the reaction mixture contained 20 μl of microsomal membrane, 40 μl EGFR peptide (4 mg ml^-1 in 25 mM Hepes, pH 7.4) and 100 μl buffer (50 mM HEPES, pH 7.4, 20 mM MgCl2). Phosphorylation was initiated at 22° C. by addition of 40 μl [γ-^32 P] ATP (100 μM final concentration) and terminated at the indicated times by addition of 40 μl of 0.5 M ATP in 90% formic acid. Phosphorylated peptide was eluted from a C18 Sep pak cartridge (Millipore), lyophilized, and resolved by C18 reverse phase HPLC using a linear gradient of acetonitrile. […] All assays were performed under conditions determined as linear for time and enzyme concentration. Enzyme activity was determined from the percent conversion of substrate to product and the specific radioactivity of [γ-^32 P] ATP. […] Values (mean±range) represent duplicate determinations from two experiments.
Activity was measured by the transfer of ^32 P from the γ-position of ATP to EGFR peptide (AA 663-681 of the EGFR). The effect of IL-1β on kinase activity was determined using microsomal membranes derived from cells stimulated with IL-1β.

EL-4 cells = test: Sphingomyelin and ceramide levels in intact EL-4 cells; assay type: cell-based, murine
Experimental: IL-1β effects on sphingomyelin levels in EL4 cells. Time course (A) and dose response (B). Cells were grown to growth arrest (1-1.5×10^6 cells ml^-1) in DME/Ham's F12 medium (1:1, v/v) containing 10% horse serum and for 48 hours [^3 H]choline (1 μCi ml^-1). On the day of an experiment, cells were resuspended back into the same medium at 10×10^6 cells ml^-1 and stimulated with 40 ng ml^-1 IL-1β for the indicated times (A) or for 30 minutes with increasing concentrations of IL-1β (B). Human IL-1β may be obtained using methods well known to those skilled in the art. Reactions were terminated with CHCl3 :CH3 OH:HCl (100:100:1) containing 10 mM EDTA (82). Lipids in the organic phase extract were dried under N2 and subjected to mild alkaline hydrolysis (0.1 M methanolic KOH for 1 hour at 37° C.) to remove glycerophospholipids. Sphingomyelin was resolved by thin-layer chromatography (TLC) using CHCl3 :CH3 OH:CH3 COOH:H2 O (60:30:8:5) as solvent, identified by iodine vapor staining, and quantified by liquid scintillation spectrometry. As previously reported, the use of [^3 H]choline as a measure of sphingomyelin content was validated by simultaneous phospholipid phosphorus measurements. Each value represents the mean±SEM of triplicate determinations from four experiments in (A), and one representative of four similar studies performed in triplicate in (B).
Effect of IL-1β on ceramide levels in EL-4 cells. Cells were stimulated as in FIG. 12 with IL-1β (40 ng ml^-1) and ceramide contained within the organic phase extract quantified enzymatically using the E. coli diacylglycerol kinase reaction. Lipids were resolved by TLC using CHCl3 :CH3 OH:CH3 COOH (65/15/5) as solvent, autoradiographed and quantified by liquid scintillation spectrometry. Each value represents the mean±SEM of triplicate determinations from 10 experiments.
The murine thymoma EL-4 cell line is a well-defined IL-1 responsive cell line that expresses functional IL-1 receptors. Upon stimulation with IL-1, these cells up-regulate the IL-2 receptor and secrete IL-2 [62]. Initial studies were designed to investigate the effects of IL-1β on cellular sphingomyelin content. Cells, grown in Dulbecco's Modified Eagle's (DME)/Ham's F-12 medium containing 10% horse serum and [^3 H]choline (1 μCi ml^-1), were resuspended back into the same medium at 10×10^6 cells ml^-1 and stimulated with IL-1β. IL-1β is commercially available.

YT cells = test: Ceramide generation in YT cells (preliminary); assay type: cell-based, human
[2] = p<0.005 vs. control at 1 minute

IL-1β: Human IL-1β
protein kinase C activity (protein kinase C): not enhanced
ceramide-activated protein kinase activity, cell-free (sphingomyelin pathway): increased
ceramide content, cell-free (sphingomyelin pathway; [2]): quantitative increase in ceramide content
sphingomyelin content, cell-free (sphingomyelin pathway; [2]): rapid reduction in sphingomyelin content
IL-2 secretion in combination with TPA (EL4 cells; 24 h): stimulated secretion maximally
IL-2 secretion, +TPA (EL4 cells; with TPA 20 ng ml^-1, 24 h, nd = not detectable, mean ± range): 261 ± 2
ED50 (kinase activity) [1]: ≈ 2 ng ml^-1
concentration of maximal effect (kinase activity) [1]: 10 ng/mL
effective concentration (kinase activity) [1]: 0.03 ng/mL
onset of increase in kinase activity ([1]; IL-1β 10 ng ml^-1): 30 s
time of maximal kinase activity ([1]; IL-1β 10 ng ml^-1): 2 min
kinase activity ([1]; IL-1β 10 ng ml^-1, from 5): 11 pmol/min/mg
kinase activity, fold of control ([1]; IL-1β 10 ng ml^-1, microsomal membranes, p<0.005): 2.1 fold of control
cytosolic kinase activity toward EGFR peptide ([1]; cytosolic fractions): not enhanced
ED50 (sphingomyelin hydrolysis) (EL-4 cells; 30 minutes): ≈ 2 ng ml^-1
concentration of maximal effect (sphingomyelin hydrolysis) (EL-4 cells; 30 minutes): 10 ng/mL
effective concentration (sphingomyelin hydrolysis) (EL-4 cells; 30 minutes): 0.01 ng/mL
content of phosphatidylcholine (EL-4 cells; IL-1β): unchanged
onset of reduction in sphingomyelin content (EL-4 cells; IL-1β 40 ng ml^-1): ≤ 2 min
ceramide content (EL-4 cells; IL-1β 40 ng ml^-1, 2 minutes, from 360, p<0.005): 403 pmol 10^6 cells^-1
maximum ceramide content (EL-4 cells; IL-1β 40 ng ml^-1, 15 minutes, from 360): 450 pmol 10^6 cells^-1
sphingomyelin content (EL-4 cells; IL-1β 40 ng ml^-1, 30 minutes, baseline 800±14, mean±SEM, p<0.005): 648±16 pmol 10^6 cells^-1
onset of ceramide increase (EL-4 cells; separate studies (n=4)): ≤ 30 s
ceramide generation (YT cells): rapid generation of ceramide
